Test results from patent US4600715A, “Benzodiazepine antagonistic β-carboline derivatives and compositions thereof” (Shering Aktiengesellschaft, priority 1983, dated 1986).
≈ marks a conversion by molar mass, not a printed value.

Biological target: benzodiazepine receptors
Assay: in vitro displacement of specific ^3 H flunitrazepam binding, cerebral membrane suspension
Details: ^3 H flunitrazepam 1.0 nM, 0° C.; rat cerebrum, pH 7.1; concentration effecting 50% displacement of specific binding

Row | IC50 (in vitro), displacement activity | Structure (SMILES)
1 | 0.5 ng/mL (≈ 1.47 nM) | CCCOC(=O)c1ccc2[nH]c3cnc(C(=O)OCC)c(C)c3c2c1 [CO2 Et, Me, COOC3 H7, 6-propoxycarbonyl-4-methyl-β-carboline-3-carboxylic acid ethyl ester]
2 | 0.4 ng/mL (≈ 1.06 nM) | C=CCN(CC=C)C(=O)c1ccc2[nH]c3cnc(C(=O)OCC)c(C)c3c2c1 [CO2 Et, CH3, CON(Allyl)2, 6-N,N-diallylcarbamoyl-4-methyl-β-carboline-3-carboxylic acid ethyl ester]
3 | 0.6 ng/mL (≈ 1.6 nM) | CCc1noc(-c2cc3c(cn2)[nH]c2ccc(C(=O)N4CCCCC4)cc23)n1 [drawing 11, H, drawing 12, 3-(5'-[3'-ethyl-1',2',4'-oxadiazol]yl)-β-carboline-6-carboxylic acid piperidide]
4 | 1.3 ng/mL (≈ 3.66 nM) | CCOC(=O)c1ncc2[nH]c3ccc(C(=O)N(C)C)cc3c2c1COC [CO2 Et, CH2 OCH3, CON(CH3)2, 6-N,N-dimethylcarbamoyl-4-methoxymethyl-β-carboline-3-carboxylic acid ethyl ester]
5 | 0.6 ng/mL (≈ 1.71 nM) | CCOC(=O)c1cc2c(cn1)[nH]c1ccc(C(=O)N3CCCCC3)cc12 [CO2 Et, H, drawing 10, 6-piperidinocarbonyl-β-carboline-3-carboxylic acid ethyl ester]

Biological target: benzodiazepine receptors
Assay: not given
Details: comparison compound marked *Nature 294: 472 (1981); ^3 H flunitrazepam 1.0 nM, 0° C.; cited from earlier work

Row | Structure (SMILES) | IC50 (in vitro), displacement activity
6 | COC(=O)c1cc2c(cn1)[nH]c1ccccc12 [CO2 Me, H, H] | 1.9 ng/mL (≈ 8.4 nM)
